In brackets after ≈: the same amount, converted by molar mass. Where a SMILES comes first, the peptide text is derived from it. Bridges are numbered along the chain shown (N, C = ends). Roman numbers before positions name the chains, in order. [ ]: non-standard residue; d: D form. Tle = CC(C)(C)[C@H](N)C(=O)O; dDab = NCC[C@@H](N)C(=O)O; Dab = NCC[C@H](N)C(=O)O; Abu = CC[C@H](N)C(=O)O; Dap = NC[C@H](N)C(=O)O
Legend:
male ICR mice = experiment: Tolerability in a mouse model (Maximum Tolerated Dose assay); type: in vivo; details: groups of 3
Method in brief: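 Peptides in 0.9% NaCl (pH 6.5-7.6) given s.c. at 30 or 40 mg/kg, twice 12 h apart, to groups of 3 male ICR mice (23±3 g). Acute toxic signs (mortality, convulsions, tremors, sedation) and autonomic effects (diarrhea, salivation, piloerection) observed for 30 min after each dose.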

[1] = system: human red blood cells (hRBC); experiment: Hemolysis; type: cell-based; details: red cells of human, 1 h, 200
Method in brief: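 Washed fresh hRBC (20% v/v) were incubated with peptides at 200 μg/mL for 1 h at 37° C with shaking at 300 rpm. Supernatant OD540 was read after centrifugation and dilution, blank-corrected, and expressed as percent of the 2% Triton X-100 (100% lysis) control; PBS with 10% water gave 0%.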

[2] = system: Acinetobacter baumannii DSM 30008; type: cell-based; details: DSM 30008
Method in brief: (§1)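 Cation-adjusted MH-II broth, 0.002% polysorbate 80, inoculum near 10^6 CFU/mL. MIC read visually after 18-20 h, 35° C; units μg/mL.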

[3] = system: Enterobacter cloacae 848840; type: cell-based; details: 848840
Method in brief: as §1

[4] = system: Klebsiella pneumoniae 968733; type: cell-based; details: 968733
Method in brief: as §1

Escherichia coli 926415 = type: cell-based; details: 926415
Method in brief: as §1

[5] = system: Escherichia coli ATCC 25922; type: cell-based; details: ATCC 25922
Method in brief: as §1

[6] = system: Klebsiella pneumoniae SSI #3010; type: cell-based; details: SSI #3010
Method in brief: as §1

[7] = system: Pseudomonas aeruginosa ATCC 27853; type: cell-based; details: ATCC 27853
Method in brief: as §1

[8] = system: Acinetobacter baumannii 872842; type: cell-based; details: 872842
Method in brief: as §1

[9] = 2 × 40 mg/kg s.c. at a 12-hr interval

Row | SMILES | Mortality and dose (male ICR mice; [9]) | Hemolysis at 200 μg/mL [1] | Acinetobacter baumannii DSM 30008 MIC [2] | MIC [3] | MIC [4] | MIC (Escherichia coli 926415) | Escherichia coli ATCC 25922 MIC [5] | Klebsiella pneumoniae SSI #3010 MIC [6] | Pseudomonas aeruginosa ATCC 27853 MIC [7] | MIC [8] | Mortality and dose (male ICR mice; 2 × 30 mg/kg s.c. at a 12-hr interval) | MIC [2] | MIC [5] | MIC [6] | MIC [7]
1 | CC(=O)N[C@H](C(=O)N[C@H]1CCNC(=O)C[C@@H](C(=O)N[C@@H](CO)C(N)=O)NC(=O)[C@H](C(C)C)NC(=O)[C@H](CO)NC(=O)[C@H](Cc2c[nH]c3ccccc23)NC(=O)CNC(=O)[C@@H](CCN)NC(=O)[C@H](CCC(=O)N[C@@H](CCN)C(=O)N[C@H](C(=O)N[C@@H](CN)C(=O)N[C@H]2CCNC(=O)[C@H]([C@@H](C)O)NC(=O)[C@H](CCN)NC(=O)[C@H](CCN)NC(=O)[C@H](CC(C)C)NC(=O)[C@@H](CC(C)C)NC(=O)[C@H](CCN)NC2=O)[C@@H](C)O)NC(=O)[C@H](CCN)NC(=O)[C@H](Cc2ccc(O)cc2)NC1=O)C(C)C [Ex. 351] (I: Ac-V[Dab]Y[Dab]E[dDab]GWSVDS-NH2 / II: [Dab]T[Dap][Dab][Dab][dL]L[Dab][Dab]T; lactam I:2-I:11, II:4-II:C; amide I:5-II:N) | 0/3 died at 2 × 40 mg/kg | <1% | 0.0625 µg/mL | 0.25 µg/mL (≈ 0.106 µM) | 1 µg/mL (≈ 0.423 µM) | 0.5 µg/mL (≈ 0.212 µM) | 0.0625 µg/mL | 0.0625 µg/mL | 0.125 µg/mL | 0.25 µg/mL (≈ 0.106 µM) |  |  |  |  | 
2 | CC(=O)N[C@H](C(=O)N[C@H]1CSSC[C@@H](C(=O)N[C@@H](CO)C(N)=O)NC(=O)[C@H](C(C)(C)C)NC(=O)[C@H](CO)NC(=O)[C@H](Cc2c[nH]c3ccccc23)NC(=O)[C@H](CO)NC(=O)[C@@H](CCN)NC(=O)[C@H](CCC(=O)N[C@@H](CCN)C(=O)N[C@H](C(=O)N[C@@H](CN)C(=O)N[C@H]2CCNC(=O)[C@H]([C@@H](C)O)NC(=O)[C@H](CCN)NC(=O)[C@H](CCN)NC(=O)[C@H](CC(C)C)NC(=O)[C@@H](CC(C)C)NC(=O)[C@H](CCN)NC2=O)[C@@H](C)O)NC(=O)[C@H](CCN)NC(=O)[C@H](Cc2ccc(O)cc2)NC1=O)C(C)C [Ex. 114] (I: Ac-VCY[Dab]E[dDab]SWS[Tle]CS-NH2 / II: [Dab]T[Dap][Dab][Dab][dL]L[Dab][Dab]T; disulfide I:2-I:11; amide I:5-II:N; lactam II:4-II:C) |  | <1% |  | 0.0625 µg/mL (≈ 0.0259 µM) | 0.0625 µg/mL (≈ 0.0259 µM) | 0.0625 µg/mL (≈ 0.0259 µM) |  |  |  | 0.03125 µg/mL (≈ 0.013 µM) | 0/3 died at 2 × 30 mg/kg | 0.0625 µg/mL (≈ 0.0259 µM) | 0.03125 µg/mL (≈ 0.013 µM) | 0.0625 µg/mL (≈ 0.0259 µM) | 0.125 µg/mL (≈ 0.0518 µM)
3 | CC(=O)N[C@H](C(=O)N[C@H]1CSSC[C@@H](C(=O)N[C@@H](CO)C(=O)N[C@H](CO)C(N)=O)NC(=O)[C@H](C(C)C)NC(=O)[C@H](CO)NC(=O)[C@H](Cc2c[nH]c3ccccc23)NC(=O)[C@H](CO)NC(=O)[C@@H](CCN)NC(=O)[C@H](CCC(=O)N[C@@H](CCN)C(=O)N[C@H](C(=O)N[C@@H](CN)C(=O)N[C@H]2CCNC(=O)[C@H]([C@@H](C)O)NC(=O)[C@H](CCN)NC(=O)[C@H](CCN)NC(=O)[C@H](CC(C)C)NC(=O)[C@@H](CC(C)C)NC(=O)[C@H](CCN)NC2=O)[C@@H](C)O)NC(=O)[C@H](CCN)NC(=O)[C@H](Cc2ccc(O)cc2)NC1=O)C(C)C [Ex. 375] (I: Ac-VCY[Dab]E[dDab]SWSVCS[dS]-NH2 / II: [Dab]T[Dap][Dab][Dab][dL]L[Dab][Dab]T; disulfide I:2-I:11; amide I:5-II:N; lactam II:4-II:C) | 0/3 died at 2 × 40 mg/kg | <1% | 0.03125 µg/mL | 0.25 µg/mL (≈ 0.101 µM) | 0.125 µg/mL (≈ 0.0503 µM) | 0.125 µg/mL (≈ 0.0503 µM) | 0.03125 µg/mL | 0.0625 µg/mL | 0.125 µg/mL | 0.0625 µg/mL (≈ 0.0251 µM) |  |  |  |  | 
4 | CC[C@@H]1NC(=O)[C@@H](CC(C)C)NC(=O)[C@H](CCN)NC(=O)[C@@H](NC(=O)[C@H](CN)NC(=O)[C@@H](NC(=O)[C@H](CCN)NC(=O)CC[C@@H]2NC(=O)[C@H](CCN)NC(=O)[C@H](Cc3ccc(O)cc3)NC(=O)[C@@H](NC(=O)[C@@H](NC(C)=O)C(C)C)CSSC[C@@H](C(=O)N[C@@H](CO)C(N)=O)NC(=O)[C@H](C(C)C)NC(=O)[C@H](CCN)NC(=O)[C@H](Cc3c[nH]c4ccccc34)NC(=O)[C@H](CO)NC(=O)[C@@H](CCN)NC2=O)[C@@H](C)O)CCNC(=O)[C@H]([C@@H](C)O)NC(=O)[C@H](CCN)NC(=O)[C@H](CCN)NC1=O [Ex. 300] (I: Ac-VCY[Dab]E[dDab]SW[Dab]VCS-NH2 / II: [Dab]T[Dap][Dab][Dab][dL][Abu][Dab][Dab]T; disulfide I:2-I:11; amide I:5-II:N; lactam II:4-II:C) | 0/3 died at 2 × 40 mg/kg | <1% | 0.125 µg/mL | 0.125 µg/mL (≈ 0.0524 µM) | 2 µg/mL (≈ 0.839 µM) | 0.25 µg/mL (≈ 0.105 µM) | 0.125 µg/mL | 0.0625 µg/mL | 0.125 µg/mL | 1 µg/mL (≈ 0.419 µM) |  |  |  |  | 
5 | CC[C@@H]1NC(=O)[C@@H](CC(C)C)NC(=O)[C@H](CCN)NC(=O)[C@@H](NC(=O)[C@H](CN)NC(=O)[C@@H](NC(=O)[C@H](CCN)NC(=O)CC[C@@H]2NC(=O)[C@H](CCN)NC(=O)[C@H](Cc3ccc(O)cc3)NC(=O)[C@@H](NC(=O)[C@@H](NC(C)=O)C(C)C)CSSC[C@@H](C(=O)N[C@@H](CO)C(N)=O)NC(=O)[C@H]([C@@H](C)CC)NC(=O)[C@H](CO)NC(=O)[C@H](Cc3c[nH]c4ccccc34)NC(=O)[C@H](CCN)NC(=O)CNC2=O)[C@@H](C)O)CCNC(=O)[C@H]([C@@H](C)O)NC(=O)[C@H](CCN)NC(=O)[C@H](CCN)NC1=O [Ex. 299] (I: Ac-VCY[Dab]EG[Dab]WSICS-NH2 / II: [Dab]T[Dap][Dab][Dab][dL][Abu][Dab][Dab]T; disulfide I:2-I:11; amide I:5-II:N; lactam II:4-II:C) | 0/3 died at 2 × 40 mg/kg | <1% | 0.0625 µg/mL | 0.125 µg/mL (≈ 0.0531 µM) | 0.5 µg/mL (≈ 0.212 µM) | 0.25 µg/mL (≈ 0.106 µM) | 0.0625 µg/mL | 0.0625 µg/mL | 0.25 µg/mL | 0.125 µg/mL (≈ 0.0531 µM) |  |  |  |  | 
6 | CC[C@@H]1NC(=O)[C@H](CCN)NC(=O)[C@H](Cc2ccc(O)cc2)NC(=O)[C@@H](NC(=O)[C@@H](NC(C)=O)C(C)C)CSSC[C@@H](C(=O)N[C@@H](CO)C(N)=O)NC(=O)[C@H](C(C)C)NC(=O)[C@H](CO)NC(=O)[C@H](Cc2c[nH]c3ccccc23)NC(=O)[C@H](CCC(=O)N[C@@H](CCN)C(=O)N[C@H](C(=O)N[C@@H](CN)C(=O)N[C@H]2CCNC(=O)[C@H]([C@@H](C)O)NC(=O)[C@H](CCN)NC(=O)[C@H](CCN)NC(=O)[C@H](CC(C)C)NC(=O)[C@@H](CC(C)C)NC(=O)[C@H](CCN)NC2=O)[C@@H](C)O)NC(=O)[C@@H](CCN)NC1=O [Ex. 363] (I: Ac-VCY[Dab][Abu][dDab]EWSVCS-NH2 / II: [Dab]T[Dap][Dab][Dab][dL]L[Dab][Dab]T; disulfide I:2-I:11; amide I:7-II:N; lactam II:4-II:C) | 0/3 died at 2 × 40 mg/kg | 2% | 0.0625 µg/mL | 0.0625 µg/mL (≈ 0.0261 µM) | 0.125 µg/mL (≈ 0.0522 µM) | 0.125 µg/mL (≈ 0.0522 µM) | 0.0625 µg/mL | 0.0625 µg/mL | 0.125 µg/mL | 0.0625 µg/mL (≈ 0.0261 µM) |  |  |  |  | 
7 | CC(=O)N[C@H](C(=O)N[C@H]1CSSC[C@@H](C(=O)N[C@@H](CO)C(N)=O)NC(=O)[C@H](C(C)C)NC(=O)CNC(=O)[C@H](Cc2c[nH]c3ccccc23)NC(=O)[C@H](CO)NC(=O)[C@@H](CCN)NC(=O)[C@H](CCC(=O)N[C@@H](CCN)C(=O)N[C@H](C(=O)N[C@@H](CN)C(=O)N[C@H]2CCNC(=O)[C@H]([C@@H](C)O)NC(=O)[C@H](CCN)NC(=O)[C@H](CCN)NC(=O)[C@H](CC(C)C)NC(=O)[C@@H](CC(C)C)NC(=O)[C@H](CCN)NC2=O)[C@@H](C)O)NC(=O)[C@H](CCN)NC(=O)[C@H](Cc2ccc(O)cc2)NC1=O)C(C)C [Ex. 335] (I: Ac-VCY[Dab]E[dDab]SWGVCS-NH2 / II: [Dab]T[Dap][Dab][Dab][dL]L[Dab][Dab]T; disulfide I:2-I:11; amide I:5-II:N; lactam II:4-II:C) | 0/3 died at 2 × 40 mg/kg | <1% | 0.0625 µg/mL | 0.25 µg/mL (≈ 0.106 µM) | 0.5 µg/mL (≈ 0.211 µM) | 0.25 µg/mL (≈ 0.106 µM) | 0.0625 µg/mL | 0.0625 µg/mL | 0.125 µg/mL | 0.25 µg/mL (≈ 0.106 µM) |  |  |  |  | 

Reference: US11629171B2, “Beta-hairpin peptidomimetics” (POLYPHOR AG, priority 2017, dated 2023)
